# Data as given in patent US11780826B2 (Amgen Inc., priority 2017, dated 2023).
# System: Bovine cardiac myofibrils
# Assay: In vitro model of dose-dependent myofibril ATPase modulation (AC1.4, pyruvate kinase/lactate dehydrogenase-coupled ATPase assay at pCa25)
# Type: biochemical
# Conditions: concentration at which ATPase activity was 1.4-fold higher than the bottom of the dose curve, mean of a minimum of two independent tests
# Procedure, shortened: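 Detergent-skinned bovine cardiac myofibrils (typically 0.25-1.0 mg/ml) in Ca-buffered (EGTA/CaCl2) PK/LDH-coupled ATPase assay: 12 mM K-PIPES pH 6.80, 2 mM MgCl2, 1 mM ATP, 1 mM DTT, 0.5 mM NADH, 1.5 mM PEP. Hydrolysis followed at 340 nm; dose response fit to 4-parameter equation; AC1.4 is mean of ≥2 tests.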
row,Structure (SMILES),AC1.4 [µM]
1,"O=C(N[C@@H](c1cc(F)c(Cl)cc1F)C1COC1)[C@H]1C[C@H]2C[C@H]2N1C(=O)c1cc(C(F)(F)F)ccn1 [Example 233, (1R,3R,5R)-N-((R)-(4-chloro-2,5-difluorophenyl)(3-oxetanyl)methyl)-2-((4-(trifluoromethyl)-2-pyridinyl)carbonyl)-2-azabicyclo[3.1.0]hexane-3-carboxamide]",0.5241
2,"CC1(C)CN(S(=O)(=O)c2cccc(C(=O)N3CCC[C@@H]3C(=O)NCc3ccc(C(F)(F)F)cc3)c2)C1 [Example 234, 1-((3-((3,3-dimethyl-1-azetidinyl)sulfonyl)phenyl)carbonyl)-N-(4-(trifluoromethyl)benzyl)-D-prolinamide]",0.5321
3,"CS(=O)(=O)c1cncc(C(=O)N2CC[C@H](C(F)(F)F)[C@H]2C(=O)N[C@@H](c2cc(F)c(C(F)(F)F)cc2F)C2CC2)c1 [Example 236, (3S)-N-((R)-cyclopropyl(2,5-difluoro-4-(trifluoromethyl)phenyl)methyl)-1-((5-(methylsulfonyl)-3-pyridinyl)carbonyl)-3-(trifluoromethyl)-L-prolinamide]",0.5579
4,"O=C(NCc1ccc(C(F)(F)F)cc1F)[C@H]1CCCN1C(=O)[C@H]1CCCN(S(=O)(=O)N2CC(OCCF)C2)C1 [Example 237, 1-(((3S)-1-((3-(2-fluoroethoxy)-1-azetidinyl)sulfonyl)-3-piperidinyl)carbonyl)-N-(2-fluoro-4-(trifluoromethyl)benzyl)-D-prolinamide]",0.5593
5,"O=C(NCc1ccc(Cl)c(F)c1)[C@H]1CCCN1C(=O)c1cccc(S(=O)(=O)N2CC(F)(F)C2)c1 [Example 238, N-(4-chloro-3-fluorobenzyl)-1-(3-((3,3-difluoro-1-azetidinyl)sulfonyl)benzoyl)-D-prolinamide]",0.5606
6,"N#CC1CN(S(=O)(=O)N2CCN[C@H](C(=O)N3CCC[C@@H]3C(=O)NCc3ccc(C(F)(F)F)cc3)C2)C1 [Example 239, 1-(((2S)-4-((3-cyano-1-azetidinyl)sulfonyl)-2-piperazinyl)carbonyl)-N-(4-(trifluoromethyl)benzyl)-D-prolinamide]",0.5676
7,"N#CC1CN(S(=O)(=O)N2CCC[C@H](C(=O)N3C[C@H](O)C[C@@H]3C(=O)NCc3ccc(C(F)(F)F)cc3)C2)C1 [Example 240, (2R,4R)-1-((S)-1-((3-cyanoazetidin-1-yl)sulfonyl)piperidine-3-carbonyl)-4-hydroxy-N-(4-(trifluoromethyl)benzyl)pyrrolidine-2-carboxamide]",0.5685
8,"CS(=O)(=O)c1cncc(C(=O)N2CCC(C(F)(F)F)C2C(=O)N[C@@H](c2cc(F)c(C(F)(F)F)cc2F)C2CC2)c1 (stereo partly drawn) [Example 241, N-((R)-cyclopropyl(2,5-difluoro-4-(trifluoromethyl)phenyl)methyl)-1-(5-(methylsulfonyl)nicotinoyl)-3-(trifluoromethyl)pyrrolidine-2-carboxamide]",0.5692
9,"COc1cccc2c1CCC2NC(=O)[C@H]1CCCN1C(=O)[C@H]1CCCN(S(=O)(=O)N2CC(C#N)C2)C1 (stereo partly drawn) [Example 242, (2R)-1-((S)-1-((3-cyanoazetidin-1-yl)sulfonyl)piperidine-3-carbonyl)-N-(4-methoxy-2,3-dihydro-1H-inden-1-yl)pyrrolidine-2-carboxamide]",0.573
10,"Cc1ccc(CNC(=O)[C@H]2CCCN2C(=O)[C@H]2CCCN(S(=O)(=O)N3CC(C#N)C3)C2)cc1 [Example 243, 1-(((3S)-1-((3-cyano-1-azetidinyl)sulfonyl)-3-piperidinyl)carbonyl)-N-(4-methylbenzyl)-D-prolinamide]",0.5746
11,"CS(=O)(=O)c1cccc(C(=O)N2[C@@H](C(=O)NC(c3ccc(C(F)(F)F)cc3F)C3CNC(=O)C3)C[C@H]3C[C@H]32)c1 (stereo partly drawn) [Example 244, (1R,3R,5R)-N-((2-fluoro-4-(trifluoromethyl)phenyl)(5-oxopyrrolidin-3-yl)methyl)-2-(3-(methylsulfonyl)benzoyl)-2-azabicyclo[3.1.0]hexane-3-carboxamide]",0.5793
12,"CC[C@@H](NC(=O)[C@H]1CCCN1C(=O)[C@H]1CCCN(S(=O)(=O)N2CC(C#N)C2)C1)c1cc(F)cc(F)c1 [Example 245, 1-(((3S)-1-((3-cyano-1-azetidinyl)sulfonyl)-3-piperidinyl)carbonyl)-N-((1R)-1-(3,5-difluorophenyl)propyl)-D-prolinamide]",0.582
13,"CCS(=O)(=O)c1cccc(C(=O)N2[C@@H](C(=O)N[C@@H](c3ccc(C(F)(F)F)cc3F)C3CC3)C[C@H]3C[C@H]32)c1 [Example 246, (1R,3R,5R)-N-((R)-cyclopropyl(2-fluoro-4-(trifluoromethyl)phenyl)methyl)-2-(3-(ethylsulfonyl)benzoyl)-2-azabicyclo[3.1.0]hexane-3-carboxamide]",0.582
14,"O=C(N[C@@H](c1ccc(C(F)(F)F)cc1F)C1CC1)[C@H]1CCCN1C(=O)c1cccc(C2(F)CN(S(=O)(=O)C3CC3)C2)c1 [Example 247, N-((R)-cyclopropyl(2-fluoro-4-(trifluoromethyl)phenyl)methyl)-1-(3-(1-(cyclopropylsulfonyl)-3-fluoro-3-azetidinyl)benzoyl)-D-prolinamide]",0.5868
15,"C[C@@H](NC(=O)[C@H]1CCCN1C(=O)[C@H]1CCCN(S(=O)(=O)N2CC(C#N)C2)C1)c1ccc(C(F)F)cc1 [Example 248, 1-(((3S)-1-((3-cyano-1-azetidinyl)sulfonyl)-3-piperidinyl)carbonyl)-N-((1R)-1-(4-(difluoromethyl)phenyl)ethyl)-D-prolinamide]",0.5915
16,"O=C(N[C@@H](c1ccc(C(F)(F)F)cc1F)C1CC1)[C@H]1C[C@H]2C[C@H]2N1C(=O)c1cccc(S(=O)(=O)CCO)c1 [Example 249, (1R,3R,5R)-N-((R)-cyclopropyl(2-fluoro-4-(trifluoromethyl)phenyl)methyl)-2-(3-((2-hydroxyethyl)sulfonyl)benzoyl)-2-azabicyclo[3.1.0]hexane-3-carboxamide]",0.5932
17,"N#Cc1ccc(CNC(=O)[C@H]2CCCN2C(=O)c2cccc(S(=O)(=O)N3CC(C#N)C3)c2)cc1 [Example 250, 1-((3-((3-cyano-1-azetidinyl)sulfonyl)phenyl)carbonyl)-N-(4-cyanobenzyl)-D-prolinamide]",0.5978
18,"N#CC1CN(S(=O)(=O)c2cccc(C(=O)N3C[C@@H](O)C[C@@H]3C(=O)NCc3ccc(C(F)(F)F)cc3)c2)C1 [Example 251, (4S)-1-((3-((3-cyano-1-azetidinyl)sulfonyl)phenyl)carbonyl)-4-hydroxy-N-(4-(trifluoromethyl)benzyl)-D-prolinamide]",0.6055
19,"O=C(N[C@@H](c1ccc(C(F)(F)F)cc1F)C1CC1)[C@H]1CCCN1C(=O)c1cccc(C(F)(F)F)c1 [Example 252, N-((R)-cyclopropyl(2-fluoro-4-(trifluoromethyl)phenyl)methyl)-1-(3-(trifluoromethyl)benzoyl)-D-prolinamide]",0.6066
20,"CS(=O)(=O)c1cccc(C(=O)N2CCCC[C@@H]2C(=O)N[C@@H](c2ccc(C(F)(F)F)cc2F)C2CC2)c1 [Example 253, (2R)-N-((R)-cyclopropyl(2-fluoro-4-(trifluoromethyl)phenyl)methyl)-1-(3-(methylsulfonyl)benzoyl)-2-piperidinecarboxamide]",0.6092
21,"C[C@@H](NC(=O)[C@H]1CCCN1C(=O)[C@@H]1CN(S(=O)(=O)N2CC(C#N)C2)CCN1)c1ccc(Cl)cc1F [Example 254, N-((1R)-1-(4-chloro-2-fluorophenyl)ethyl)-1-(((2S)-4-((3-cyano-1-azetidinyl)sulfonyl)-2-piperazinyl)carbonyl)-D-prolinamide]",0.6139
22,"CS(=O)(=O)c1cccc(C(=O)N2CCC[C@@H]2C(=O)N[C@@H](c2ccc(Cl)c(F)c2)C2COC2)c1 [Example 255, N-((R)-(4-chloro-3-fluorophenyl)(3-oxetanyl)methyl)-1-(3-(methylsulfonyl)benzoyl)-D-prolinamide]",0.6167
23,"Cc1ccc(CNC(=O)[C@H]2CCCN2C(=O)[C@H]2CCCN(S(=O)(=O)N3CC(C#N)C3)C2)c(C)c1 [Example 256, 1-(((3S)-1-((3-cyano-1-azetidinyl)sulfonyl)-3-piperidinyl)carbonyl)-N-(2,4-dimethylbenzyl)-D-prolinamide]",0.632
24,"N#CC1CN(S(=O)(=O)N2CCN[C@H](C(=O)N3CCC[C@@H]3C(=O)NCc3ccc(Cl)c(Cl)c3)C2)C1 [Example 257, 1-(((2S)-4-((3-cyano-1-azetidinyl)sulfonyl)-2-piperazinyl)carbonyl)-N-(3,4-dichlorobenzyl)-D-prolinamide]",0.6321
25,"COC1CN(S(=O)(=O)c2cccc(C(=O)N3CCC[C@@H]3C(=O)NCc3ccc(C(F)(F)F)cc3)c2)C1 [Example 258, 1-((3-((3-methoxy-1-azetidinyl)sulfonyl)phenyl)carbonyl)-N-(4-(trifluoromethyl)benzyl)-D-prolinamide]",0.6326
26,"CC[C@@H](NC(=O)[C@H]1CCCN1C(=O)c1cccc(S(=O)(=O)N(C)C)c1)c1ccc(Cl)c(F)c1 [Example 259, N-((1R)-1-(4-chloro-3-fluorophenyl)propyl)-1-(3-(dimethylsulfamoyl)benzoyl)-D-prolinamide]",0.6372
27,"N#CC1CN(S(=O)(=O)c2cccc(C(=O)N3CCC[C@@H]3C(=O)NCc3ccc(Cl)nc3)c2)C1 [Example 260, N-((6-chloro-3-pyridinyl)methyl)-1-((3-((3-cyano-1-azetidinyl)sulfonyl)phenyl)carbonyl)-D-prolinamide]",0.639
28,"CS(=O)(=O)c1ccc(C(=O)N2C[C@@H](F)C[C@@H]2C(=O)N[C@@H](c2cc(F)c(Cl)cc2F)C2CC2)cn1 [Example 262, (4S)-N-((R)-(4-chloro-2,5-difluorophenyl)(cyclopropyl)methyl)-4-fluoro-1-((6-(methylsulfonyl)-3-pyridinyl)carbonyl)-D-prolinamide]",0.6468
